Reference: EPA's ToxValDB 9.5 (doi:10.2903/j.efsa.2012.2927)
Structures can show the parent of a compound that is named as a salt.

Tested on: Rattus norvegicus
Conditions: oral, no effects
[1] = chronic, duration: 17 weeks, gavage
[2] = subchronic, duration: 90 days, diet
[3] = subchronic, duration: 90 days, drinking water

CCC(CC)C(=O)O [2-Ethylbutyric acid]
NOAEL [1]: > 1000 mg/kg-day | NOAEL [2]: > 2500 mg/kg-day | NOAEL [3]: > 1450 mg/kg-day | NOAEL (subchronic, duration: 90 days): > 219 mg/kg-day

CC(C)CO [2-Methyl-1-propanol]
NOAEL [1]: > 1000 mg/kg-day | NOAEL [2]: > 2500 mg/kg-day | NOAEL [3]: > 1450 mg/kg-day | NOAEL (subchronic, duration: 90 days): > 219 mg/kg-day

CCC(C)C=O (stereo unspecified) [2-Methylbutanal]
NOAEL [1]: > 1000 mg/kg-day | NOAEL [2]: > 2500 mg/kg-day | NOAEL [3]: > 1450 mg/kg-day | NOAEL (subchronic, duration: 90 days): > 219 mg/kg-day

CCC(C)COC(C)=O (stereo unspecified) [2-Methylbutyl acetate]
NOAEL [1]: > 1000 mg/kg-day | NOAEL [2]: > 2500 mg/kg-day | NOAEL [3]: > 1450 mg/kg-day | NOAEL (subchronic, duration: 90 days): > 219 mg/kg-day

CCC(C)COC(=O)CC(C)C (stereo unspecified) [2-Methylbutyl isovalerate]
NOAEL [1]: > 1000 mg/kg-day | NOAEL [2]: > 2500 mg/kg-day | NOAEL [3]: > 1450 mg/kg-day | NOAEL (subchronic, duration: 90 days): > 219 mg/kg-day

CCCC(C)C(=O)O (stereo unspecified) [2-Methylpentanoic acid]
NOAEL [1]: > 1000 mg/kg-day | NOAEL [2]: > 2500 mg/kg-day | NOAEL [3]: > 1450 mg/kg-day | NOAEL (subchronic, duration: 90 days): > 219 mg/kg-day

CC(C)C(=O)O [2-Methylpropanoic acid]
NOAEL [1]: > 1000 mg/kg-day | NOAEL [2]: > 2500 mg/kg-day | NOAEL [3]: > 1450 mg/kg-day | NOAEL (subchronic, duration: 90 days): > 219 mg/kg-day

CC(C)CC=O [3-Methylbutanal]
NOAEL [1]: > 1000 mg/kg-day | NOAEL [2]: > 2500 mg/kg-day | NOAEL [3]: > 1450 mg/kg-day | NOAEL (subchronic, duration: 90 days): > 219 mg/kg-day

CC(=O)OCCC(C)C [3-Methylbutyl acetate]
NOAEL [1]: > 1000 mg/kg-day | NOAEL [2]: > 2500 mg/kg-day | NOAEL [3]: > 1450 mg/kg-day | NOAEL (subchronic, duration: 90 days): > 219 mg/kg-day

CCC(=O)OCCC(C)C [3-Methylbutyl propanoate]
NOAEL [1]: > 1000 mg/kg-day | NOAEL [2]: > 2500 mg/kg-day | NOAEL [3]: > 1450 mg/kg-day | NOAEL (subchronic, duration: 90 days): > 219 mg/kg-day

CCC(C)C(=O)OCCC(C)C (stereo unspecified) [Butanoic acid, 2-methyl-, 3-methylbutyl ester]
NOAEL [1]: > 1000 mg/kg-day | NOAEL [2]: > 2500 mg/kg-day | NOAEL [3]: > 1450 mg/kg-day | NOAEL (subchronic, duration: 90 days): > 219 mg/kg-day

CCCC(=O)OCC(C)CC (stereo unspecified) [Butanoic acid, 2-methylbutyl ester]
NOAEL [1]: > 1000 mg/kg-day | NOAEL [2]: > 2500 mg/kg-day | NOAEL [3]: > 1450 mg/kg-day | NOAEL (subchronic, duration: 90 days): > 219 mg/kg-day

CC(C)COC(=O)CC(C)C [Butanoic acid, 3-methyl-, 2-methylpropyl ester]
NOAEL [1]: > 1000 mg/kg-day | NOAEL [2]: > 2500 mg/kg-day | NOAEL [3]: > 1450 mg/kg-day | NOAEL (subchronic, duration: 90 days): > 219 mg/kg-day

CCCC(=O)OCC(COC(=O)CCC)OC(=O)CCC [Glycerol tributyrate]
NOAEL [1]: > 1000 mg/kg-day | NOAEL [2]: > 2500 mg/kg-day | NOAEL [3]: > 1450 mg/kg-day | NOAEL (subchronic, duration: 90 days): > 219 mg/kg-day

CCCCCC(C)C(=O)O (stereo unspecified) [Heptanoic acid, 2-methyl-]
NOAEL [1]: > 1000 mg/kg-day | NOAEL [2]: > 2500 mg/kg-day | NOAEL [3]: > 1450 mg/kg-day | NOAEL (subchronic, duration: 90 days): > 219 mg/kg-day

CC(C)CCOC=O [Isoamyl formate]
NOAEL [1]: > 1000 mg/kg-day | NOAEL [2]: > 2500 mg/kg-day | NOAEL [3]: > 1450 mg/kg-day | NOAEL (subchronic, duration: 90 days): > 219 mg/kg-day

CC(=O)OCC(C)C [Isobutyl acetate]
NOAEL [1]: > 1000 mg/kg-day | NOAEL [2]: > 2500 mg/kg-day | NOAEL [3]: > 1450 mg/kg-day | NOAEL (subchronic, duration: 90 days): > 219 mg/kg-day

CCCC(=O)OCC(C)C [Isobutyl butyrate]
NOAEL [1]: > 1000 mg/kg-day | NOAEL [2]: > 2500 mg/kg-day | NOAEL [3]: > 1450 mg/kg-day | NOAEL (subchronic, duration: 90 days): > 219 mg/kg-day

CC(C)COC(=O)C(C)C [Isobutyl isobutyrate]
NOAEL [1]: > 1000 mg/kg-day | NOAEL [2]: > 2500 mg/kg-day | NOAEL [3]: > 1450 mg/kg-day | NOAEL (subchronic, duration: 90 days): > 219 mg/kg-day

CC(C)CCO [Isopentyl alcohol]
NOAEL [1]: > 1000 mg/kg-day | NOAEL [2]: > 2500 mg/kg-day | NOAEL [3]: > 1450 mg/kg-day | NOAEL (subchronic, duration: 90 days): > 219 mg/kg-day

CCCC(=O)OCCC(C)C [Isopentyl butyrate]
NOAEL [1]: > 1000 mg/kg-day | NOAEL [2]: > 2500 mg/kg-day | NOAEL [3]: > 1450 mg/kg-day | NOAEL (subchronic, duration: 90 days): > 219 mg/kg-day

CC(C)CCOC(=O)C(C)C [Isopentyl isobutyrate]
NOAEL [1]: > 1000 mg/kg-day | NOAEL [2]: > 2500 mg/kg-day | NOAEL [3]: > 1450 mg/kg-day | NOAEL (subchronic, duration: 90 days): > 219 mg/kg-day

CC(C)CC(=O)O [Isovaleric acid]
NOAEL [1]: > 1000 mg/kg-day | NOAEL [2]: > 2500 mg/kg-day | NOAEL [3]: > 1450 mg/kg-day | NOAEL (subchronic, duration: 90 days): > 219 mg/kg-day

CCCCC(C)CCC(=O)O (stereo unspecified) [Octanoic acid, 4-methyl-]
NOAEL [1]: > 1000 mg/kg-day | NOAEL [2]: > 2500 mg/kg-day | NOAEL [3]: > 1450 mg/kg-day | NOAEL (subchronic, duration: 90 days): > 219 mg/kg-day
